Test results from US8003343B2, “Method for determining diamine oxidase” (Sciotec Diagnostic Technologies GmbH, priority 2005, dated 2011).

Molecular target: diamine oxidase (DAO; EC 1.4.3.6) (Homo sapiens, UniProt P19801)
Experiment: biochemical
Description: The sample is contacted and mixed with the given amount of diamine preferably dissolved in an aqueous solution. It is, of course, also possible to directly add a given amount of diamine to a defined amount of sample (e.g. in crystal form). […] After having incubated this mixture for a fixed period during which the diamine contained in the aqueous solution is degraded in the presence of DAO as a function of the amount of the latter, the diamine remaining in the mixture is derivatized by 95%, preferably 99%, even more preferred 99.5%, in particular 100%. The incubation conditions must be selected such that the DAO possibly present in the sample is able to convert the present diamine. DAO is an enzyme which converts diamine substrates such as, e.g. histamine, at such reaction rates that the incubation time will preferably last for at least 30 minutes.
FIG. 3 depicts the relative enzymatic activity of a defined amount of DAO in a sample as a function of the amount of histamine used.

Sequence of diamine oxidase (DAO; EC 1.4.3.6) (P19801 20-751, species assumed): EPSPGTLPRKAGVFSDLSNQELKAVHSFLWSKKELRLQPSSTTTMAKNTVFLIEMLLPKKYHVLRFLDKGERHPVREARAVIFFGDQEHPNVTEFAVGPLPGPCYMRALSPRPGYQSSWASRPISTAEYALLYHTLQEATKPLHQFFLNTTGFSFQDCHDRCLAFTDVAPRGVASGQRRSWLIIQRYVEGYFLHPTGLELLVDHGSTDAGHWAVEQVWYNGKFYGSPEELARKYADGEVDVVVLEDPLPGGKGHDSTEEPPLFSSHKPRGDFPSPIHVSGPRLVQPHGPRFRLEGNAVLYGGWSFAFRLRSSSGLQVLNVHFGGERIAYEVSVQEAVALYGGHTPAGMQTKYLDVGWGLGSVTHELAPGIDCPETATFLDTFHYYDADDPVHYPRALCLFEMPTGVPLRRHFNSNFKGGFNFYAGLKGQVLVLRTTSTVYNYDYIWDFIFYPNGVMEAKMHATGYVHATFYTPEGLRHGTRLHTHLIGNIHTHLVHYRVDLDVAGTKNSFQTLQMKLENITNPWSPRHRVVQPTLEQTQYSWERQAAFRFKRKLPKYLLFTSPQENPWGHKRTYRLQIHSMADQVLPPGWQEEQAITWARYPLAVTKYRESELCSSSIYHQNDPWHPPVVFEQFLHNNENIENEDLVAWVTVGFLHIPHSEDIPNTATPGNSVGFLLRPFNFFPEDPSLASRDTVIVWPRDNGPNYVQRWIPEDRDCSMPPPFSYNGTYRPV

In the case of `NCCc1c[nH]cn1` [histamine, 1H-imidazole-4-ethylamine], the “inhibition of DAO” value (addition of at least 100 μM histamine) is reported as “at least partially inhibited” and the inhibition at 500 µM (read-out: inhibition of DAO) is reported as about 60%.
